Patent US20240158639A1, “PROCESS FOR PREPARING INDOCYANINE GREEN” (ICROM Srl, priority 2021, published 2024)
Like-named read-outs stand apart in the source and are kept apart here.

What was measured:
[1] = Stability of the HPLC sample solution; format: physicochemical
Experimental: Sonicate for 5 minutes verifying complete solubilization.

[2] = in vivo, iv; cited from earlier work
[3] = 10° C., 30 days, in nitrogen, aluminium + polythene, MeOH
[4] = 10° C., 30 days, no nitrogen, polythene, MeOH
[5] = 20-25° C., 30 days, in nitrogen, aluminium + polythene, MeOH
[6] = 20-25° C., 30 days, no nitrogen, polythene, MeOH
[7] = t0, no nitrogen, polythene, diluent MeOH, % area 254 nm

## 1H-benz[e]indole, 2-[7-[1,3-dihydro-1,1-dimethyl-3-(4-sulfobutyl)-2H-benz[e]indol-2-ylidene]-1,3,5-heptatrienyl]-1,1-dimethyl-3-(4-sulfobutyl) hydroxide, inner salt, sodium salt [compound of formula (I)]
[1]; sample preparation method 1: 40 mg in 50 ml mixture phase 70:30 A:B
  time for which the sample solution is stable: ≤ 30 min
[1]; sample preparation method 2: 40 mg in 50 ml methanol
  time for which the sample solution is stable: ≤ 30 min
[2]
  half-life of elimination by the body: 3 to 4 min

## CC1(C)C(/C=C/C=C/C=C/C=C2\N(CCCCS(=O)(=O)[O-])c3ccc4ccccc4c3C2(C)C)=[N+](CCCCS(=O)(=O)[O-])c2ccc3ccccc3c21.[Na+] [067/046]
[3]
  % rt 3.5 (A): nq
  % rt 4.0: 0.02%
  % rt 8.9: 0.04%
  INNmax (unknown maximum impurity) %: 0.07%
  Purity: 99.77%
[4]
  % rt 3.5 (A): nq
  % rt 4.0: 0.04%
  % rt 8.9: 0.04%
  INNmax (unknown maximum impurity) %: 0.06%
  Purity: 99.84%
[5]
  % rt 3.5 (A): nq
  % rt 4.0: 0.03%
  % rt 8.9: 0.05%
  INNmax (unknown maximum impurity) %: 0.08%
  Purity: 99.71%
[6]
  % rt 3.5 (A): nq
  % rt 4.0: 0.076%
  % rt 8.9: 0.05%
  INNmax (unknown maximum impurity) %: 0.076%
  Purity: 99.78%
[7]
  % rt 3.5 (A): nq
  % rt 4.0: 0.02%
  % rt 8.9: 0.03%
  INNmax (unknown maximum impurity) %: 0.07%
  Purity: 99.73%
